Literature values as cited in US7348299B2, “Cleansing bar with distributed polymeric network providing enhanced delivery” (Conopco, Inc., priority 2005, dated 2008).

How the values were obtained:
[1] = single component of 1:1 model perfume; no unit in table, K in Atm
[2] = single component of 1:1 model perfume; first/second component

Row | Compound | K (volatility constant) [1] | φo/w (octanol/water partition coefficient) [2]
1 | CC(CC=O)CCCC(C)(C)O (stereo not shown) [hydroxycitonellal] | 0.05 | 34.7
2 | CC(C=O)Cc1ccc(C(C)(C)C)cc1 (stereo not shown) [lilial] | 0.42 | 32,360
3 | CC=O [acetaldehyde] | 0.008 | 167
4 | CC1=CCC2CC1C2(C)C (stereo not drawn) [alpha-pinene] | 280 | 29648
5 | C=C(C)[C@H]1CC=C(C)CC1 [Limonene] | 98 | 
6 | Methyl ionone | 5.2 | 
7 | CC(=O)OCc1ccccc1 [Benzyl acetate] | 0.32 | 81
8 | CCC(C)(CCCC(C)C)OC(C)=O (stereo not shown) [Tetrahydrolinalylacetate] | 5.5 | 31,600
9 | Cc1ccc(C(C)C)cc1 [p-cymene] | 265 | 31,000
10 | C=CC(C)CCC=C(C)C (stereo not shown) [citronellene] | 120 | 43,651
11 | OCCc1ccccc1 [Phenylethylalcohol] | 0.1 | 22.9
12 | CC(=O)OCCC(C)CCC=C(C)C (stereo not shown) [citronellyl acetate] | 6 | 19,054
